Laboratory results reported in PubChem BioAssay (NCI).
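Cultured in 96-well plates, cells were exposed to test compound for 48 hours across five concentrations. GI50 = concentration required for 50% inhibition of growth. Definition used: TGI = concentration required for complete inhibition of growth.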

Tests used:
Test in all cases: growth of human tumour cells (NCI), 48 h
[1] = system: OVCAR-5 ovarian
[2] = system: SW-620 colon
[3] = system: SF-268 CNS
[4] = system: SF-295 CNS
[5] = system: HCT-15 colon
[6] = system: HCC-2998 colon
[7] = system: SN12C renal
[8] = system: NCI/ADR-RES ovarian
[9] = system: MDA-MB-231 breast
[10] = system: BT-549 breast

Row | SMILES | TGI [1] [µM] | TGI [2] [µM] | TGI [3] [µM] | TGI [4] [µM] | TGI [5] [µM] | TGI [6] [µM] | TGI [7] [µM] | TGI [8] [µM] | TGI [9] [µM] | GI50 [1] [µM] | GI50 [8] [µM] | GI50 [2] [µM] | GI50 [3] [µM] | GI50 [4] [µM] | GI50 [5] [µM] | GI50 [6] [µM] | GI50 [7] [µM] | TGI [10] [µM] | GI50 [9] [µM]
1 | O=c1[nH]c(=O)n(C2OC(COP(=O)(O)OP(=O)(O)OC3OC(CO)C(O)C(O)C3O)C(O)C2O)cc1F (centres undefined) | 5.33 | > 100 | > 100 | > 100 | 11.5 | > 100 | > 100 |  |  |  |  |  |  |  |  |  |  |  | 
2 | NC(CCCC(N)P(=O)(O)c1ccccc1)P(=O)(O)c1ccccc1 (centres undefined) |  | > 261 | > 261 | > 261 | > 261 | > 261 | > 261 |  |  |  |  |  |  |  |  |  |  |  | 
3 | Cc1ccc(N2Cc3c(ccc4ccccc34)OP2(=O)Oc2ccc(Cl)c(C)c2)cc1 (centres undefined) | > 100 | > 100 | > 100 | > 100 | > 100 | > 100 | > 100 | > 100 |  |  |  |  |  |  |  |  |  |  | 
4 | CC(C)OP(=O)(OC(C)C)/C(I)=N/Nc1ccc([N+](=O)[O-])cc1 | > 100 | > 100 | > 100 | > 100 | > 100 | > 100 | > 100 |  |  |  |  |  |  |  |  |  |  |  | 
5 | O=C(/C=C/c1ccc(O)c(O)c1)OCCCc1ccccc1 | 37.3 | 32 | 24 | 38.9 | 26.4 | 39.5 | 25.3 | 28.6 | 25.2 |  |  |  |  |  |  |  |  |  | 
6 | N[C@H](C(=O)O)[C@H]1ON=C(Cl)[C@@H]1O | > 166 | > 550 | > 550 | > 550 | > 550 | > 173 | > 550 | > 469 |  | 13.8 | 15.3 | 8.09 | 5.1 | 2.83 | 3.95 | 5.62 | 13.6 |  | 
7 | [N-]=[N+]=C1N=CN=C1c1ncn[nH]1 |  | > 100 |  | > 100 | > 100 | > 100 | 93.9 | > 100 | > 100 |  |  |  |  |  |  |  |  |  | 
8 | C[n+]1c(-c2ccc(/C=N/NC(=N)N/N=C/c3ccc(-c4cn5cc(Cl)ccc5[n+]4C)cc3)cc2)cn2cc(Cl)ccc21 | > 100 | > 100 | > 100 | > 100 | > 100 | > 100 | > 100 | > 100 | > 100 |  |  |  |  |  |  |  |  |  | 
9 | Cc1cccc2c(=O)c([Se]c3coc4c(C)cccc4c3=O)coc12 | 34.7 | 39.1 | 36.8 | 17.8 | 39.2 | 44.8 | 37.9 |  |  |  |  |  |  |  |  |  |  |  | 
10 | BrCCCCCOc1ccc(-c2c3ccccc3c(-c3ccc(OCCCCCBr)cc3)c3ccccc23)cc1 | > 100 | > 100 | > 100 | > 100 | > 100 | > 100 | > 100 | > 100 | > 100 |  |  |  |  |  |  |  |  |  | 
11 | CC(NC(=O)C(C)NC(=O)C(N)CCP(C)(=O)O)C(=O)O (centres undefined) | > 100 | > 100 | > 100 | > 100 | > 100 | > 100 | > 100 | > 100 |  |  |  |  |  |  |  |  |  |  | 
12 | CCCCCCCCOC1C(O)C(O)C(O)C(O)C12CO2 (centres undefined) |  | > 100 | > 100 | > 100 | > 100 | > 100 | > 100 | > 100 | > 100 |  |  |  |  |  |  |  |  | > 100 | 
13 | N/C(=N\S(=O)(=O)c1ccc(S(=O)(=O)c2ccccc2)s1)Nc1ccc(Cl)cc1 | 97.6 | 44.8 | 47.7 | 47 | 35.1 |  | 36.3 | 45.1 | 28.8 |  |  |  |  |  |  |  |  | 46 | 
14 | CC(=O)OCCCOCn1c(Cc2ccccc2)c(C)c(=O)[nH]c1=O | > 100 | > 100 | > 100 | > 100 | > 100 | > 100 | > 100 |  | > 100 |  |  |  |  |  |  |  |  | > 100 | 
15 | CC(=O)[C@@]1(C)CC2(CCN(C)CC2)OC1C (some centres undefined) | > 100 | > 100 | > 100 | > 100 | > 100 |  | > 100 | > 100 | > 100 |  |  |  |  |  |  |  |  | > 100 | 
16 | Nc1nc(SCc2ccc([N+](=O)[O-])cc2)nc2c1ncn2C1OC(COP(=O)(O)O)C(O)C1O (centres undefined) | > 100 | > 100 | > 100 | > 100 | > 100 | > 100 | > 100 |  |  |  |  |  |  |  |  |  |  |  | 
17 | COC(=O)C1C/C(=C/N(C)C)C(=S)N1 (centres undefined) | > 100 | > 100 | > 100 | > 100 | > 100 | > 100 |  | > 100 | > 100 |  |  |  |  |  |  |  |  | > 100 | 
18 | Cc1c(Cl)c2ccccc2n1S(=O)(=O)c1ccccc1 | > 100 | > 100 | > 100 | > 100 | > 100 | > 100 |  |  |  |  |  |  |  |  |  |  |  |  | 
19 | OC(c1cc2ccccc2o1)c1cc2ccccc2s1 (centres undefined) | > 10 | > 10 | > 10 | > 10 | > 10 | > 10 | > 10 | > 10 | > 10 |  |  |  |  |  |  |  |  |  | 
20 | CC1(C)N=C(C(N)=O)c2ncn(N)c2N1 | > 100 | > 100 | > 100 | > 100 | > 100 | > 100 | > 100 | > 100 | > 100 |  |  |  |  |  |  |  |  |  | 
21 | Nc1ncnc2c1nnn2C1C=CC(COS(N)(=O)=O)C1 (centres undefined) | 49.3 | > 100 | 93.6 | > 100 | > 100 | 76.2 | > 100 | > 100 | > 100 |  |  |  |  |  |  |  |  |  | 
22 | O=C(Nc1cccc(-n2ccc3c(NC(=O)c4ccccc4)nccc32)c1)Nc1cc(C(F)(F)F)cc(C(F)(F)F)c1 | > 50 | > 50 | > 50 | 30.5 | 33.2 | > 50 | 29.4 |  | 4.73 | 1.71 |  | 2.06 | 2.71 | 1.88 | 1.07 | 2.1 | 2.05 |  | 1.42
